Tests used:
[1] = First-in-human Phase I dose escalation safety study; type: in vivo
Text: First-in-human Phase I, single site, dose escalation, safety study.
Inclusion Criteria: (1) Male and female patients≥18 years of age with advanced, histologically confirmed solid tumors refractory to standard therapy or for which no standard therapy exists; (2) Patients must have measurable or evaluable disease; (3) Patients may be entered if they have received prior radiation therapy involving ≤30% of the bone marrow; (4) Patients may be enrolled with a history of treated brain metastases that are clinically stable for ≥4 weeks prior to enrollment; (5) ECOG Performance Status of ≤2; (6) Life expectancy of greater than 12 weeks as determined by treating clinician assessment; and (7) Adequate organ function per standard laboratory assessments.
Exclusion Criteria: (1) Patients must not have received prior chemotherapy or radiation for ≥4 weeks before study treatment initiation; (2) Patients unable or unwilling to swallow pill; (3) Active heart disease including myocardial infarction within previous 3 months, symptomatic coronary artery disease or heart block, or uncontrolled congestive heart failure; and (4) Women who are pregnant or actively breast-feeding.
Intrapatient dose escalation is allowed and design reverts to standard 3+3 if 2 moderate toxicities or 1 dose limiting toxicity (DLT) is encountered.
With respect to the DLT definition, Grade≥3 non-hematological toxicity will be considered dose limiting with the following clarifications: Grade 3 diarrhea will only be considered dose limiting if it is refractory to treatment and unable to be corrected to grade 1 or less within 24 hours. Bloody or grade 4 diarrhea will be dose limiting; Grade 3 nausea and vomiting will only be considered dose limiting if it is refractory to anti-emetic therapy and unable to be corrected to grade 1 or less within 24 hours; Grade 3 rise in creatinine, not corrected to grade 1 or less within 24 hours with IV fluids will be considered dose limiting. All grade 4 rises in creatinine will be dose limiting; and Grade 3 electrolyte toxicities unable to be corrected to grade 1 or baseline within 24 hours will be considered dose limiting. Tumor pain will not be considered dose limiting unless it is refractory to optimal treatment with analgesics. With respect to Grade 4, the following will be considered: Grade 4 thrombocytopenia; Grade 4 neutropenia lasting ≥5 days or febrile neutropenia; Grade 4 hemolysis; Treatment delay>2 weeks as a result of unresolved toxicity; and any degree of anemia, leucopenia in the absence of grade 4 neutropenia lasting ≥5 days, or lymphopenia will not be considered dose limiting.
Patients receive oral COH29 twice a day for 21 days of a 28-day cycle. Dose levels range from 200 to 2400 mg per day of administration. Dose escalation is pursued utilizing a Simon's accelerated titration design, which allows skipping of dose levels (dose doubling) during the accelerated dose-finding phase. PD assessment includes measurement of plasma CK18 levels to determine degree of cellular apoptosis, evaluation of dNTP pool levels in peripheral blood mononuclear cells (PBMCs) to evaluate RNR inhibition, as well as measurement of PAR expression in PBMCs to assess PARP inhibition. Quantitation of tumor RRM2 expression using dual-color immunohistochemistry is explored as a predictive biomarker of anti-tumor response to COH29.

TOV112D xenograft tumors = assay: TOV112D mouse xenograft; type: in vivo; conditions: oral 200, 300 or 400 mg/kg, 7 days
Description: FIGS. 12A-12D depict the activity of COH29 in mouse xenografts. Cancer cells were implanted and allowed to grow at the subcutaneous site until the tumor was measurable. Subcutaneous xenograft growth curves for leukemic-(MOLT-4) mice treated for 12 days with oral COH29 in twice-daily dosing at 50 and 100 mg/kg (FIG. 12A) and for ovarian cancer bearing mice (TOV112D) treated for 7 days with 200, 300, or 400 mg/kg of oral COH29 (FIG. 12B) (shown are the average±SDs for 4 animals/group). FIG. 12C depicts the activity of RNR in MOLT-4 tumor xenografts from mice treated with vehicle (solutol-15) or 100 mg/kg of oral COH29 for 12 days. FIG. 12D depicts the effect of oral COH29 on intratumoral dTNP pools from MOLT-4 tumor xenografts.

[2] = tested on: human cancer cells resistant to gemcitabine, hydroxyurea or cisplatin; assay: Growth of drug-resistant human cancer cells; type: cell-based; conditions: KB-Gem, KBHURs and others, 72 h
Description: FIGS. 11A-11B depict the activity of COH29 in gemcitabine (KB-Gem) (FIG. 11A) and hydroxyurea (KBHURs) (FIG. 11B) resistant cell lines in 72 h toxicity assay. Hydroxyurea (concentration 2-50 mmol/L), gemcitabine (concentration 20-500 μmon), and COH29 (concentration 2-250 μmon) were used for real-time growth curves for KBHUR and gemcitabine, respectively, based on comparison of 72-h viability of hydroxyurea-resistant or gemcitabine-resistant cells to COH29.

PARP1 = molecular target: T1, PARP1 (Homo sapiens, UniProt P09874); assay: PARP1 Chemiluminescent Assay on lysates of treated cells; type: cell-based
T1 construct: endogenous in cells; host or cells: HCC1937, HCC1937+BRCA1, UWB1.289 and UWB1.289+BRCA1 human cancer cells (lysates)
T1 sequence (P09874 whole entry): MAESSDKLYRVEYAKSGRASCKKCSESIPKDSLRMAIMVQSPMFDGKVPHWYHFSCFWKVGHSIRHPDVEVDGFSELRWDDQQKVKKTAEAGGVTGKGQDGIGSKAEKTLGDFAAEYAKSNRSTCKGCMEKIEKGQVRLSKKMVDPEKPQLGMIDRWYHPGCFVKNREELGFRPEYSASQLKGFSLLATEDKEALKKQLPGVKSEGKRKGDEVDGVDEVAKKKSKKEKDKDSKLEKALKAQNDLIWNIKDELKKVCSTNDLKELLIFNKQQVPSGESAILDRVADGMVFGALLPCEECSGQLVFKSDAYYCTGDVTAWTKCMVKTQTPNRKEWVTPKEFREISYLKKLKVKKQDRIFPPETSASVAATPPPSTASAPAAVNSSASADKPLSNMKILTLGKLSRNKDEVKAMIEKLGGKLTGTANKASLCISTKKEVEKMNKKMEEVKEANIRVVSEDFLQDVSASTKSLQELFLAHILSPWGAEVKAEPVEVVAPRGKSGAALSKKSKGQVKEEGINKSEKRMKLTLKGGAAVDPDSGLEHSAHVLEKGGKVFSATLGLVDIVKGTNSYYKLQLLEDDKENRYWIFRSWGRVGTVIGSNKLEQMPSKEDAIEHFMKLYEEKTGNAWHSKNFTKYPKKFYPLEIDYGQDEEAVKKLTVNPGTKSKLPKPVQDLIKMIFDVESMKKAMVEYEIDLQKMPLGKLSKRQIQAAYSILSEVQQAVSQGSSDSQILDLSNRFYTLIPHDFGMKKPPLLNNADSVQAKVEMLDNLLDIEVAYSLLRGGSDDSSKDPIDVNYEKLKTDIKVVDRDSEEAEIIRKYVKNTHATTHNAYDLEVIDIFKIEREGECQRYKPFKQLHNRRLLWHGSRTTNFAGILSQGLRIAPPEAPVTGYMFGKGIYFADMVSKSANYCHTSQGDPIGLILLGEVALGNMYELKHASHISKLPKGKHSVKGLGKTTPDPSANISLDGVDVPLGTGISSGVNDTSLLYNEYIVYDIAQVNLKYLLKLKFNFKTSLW
Description: The PARP1 activity was determined using the PARP1 Chemiluminescent Assay Kit (BPS Bioscience, San Diego) according to the manufacturer's protocol. Briefly, the ribosylation reaction was carried out with activated DNA in PARP assay buffer using test inhibitor, positive control, substrate control and blank reactions, for 1 hour at 25° C. Detection was by streptavidin-HRP with chemiluminescent substrate A and B read in a luminometer. NZebrafish (Danio rerio) were obtained from zebrafish Core facility of Taipei Medical University and maintained at 28° C. on a 14 h light/10 h dark cycle. Embryos were incubated at 28° C. and different developmental stages were determined as described (25). Wild-type embryos were treated with different concentrations of HU (0, 5, 10, 20, 50 mM) or COH29 (0, 10, 20, 50, 100 μM) at 20 hpf to evaluate the mutagenic effect. Fifteen embryos were treated per well condition. […] Embryos were observed using an Olympus IX70-FLA inverted fluorescence microscope. Images were taken using SPOT digital camera system (Diagnostic Instruments, Sterling Heights, Mich., USA) and assembled with Image) software (26).
To determine if COH29 inhibited hPARP1, PARP1 activity was examined in lysates of cells treated with or without COH29 for 4 h, 8 h or 24 h.

[3] = HCC1937 lacking BRCA1, 24 h incubation
[4] = UWB1.289 lacking BRCA1, 8 h treatment

O=C(Nc1nc(-c2ccc(O)c(O)c2)c(-c2ccccc2)s1)c1ccc(O)c(O)c1 [COH29, N-(4-(3,4-dihydroxyphenyl)-5-phenylthiazol-2-yl)-3,4-dihydroxybenzamide]
realtime PK monitoring vs AUC safety threshold ([1]; every patient, cycle 1): no exceeding of AUC safety threshold | toxicity / DLT ([1]; first patient, dose level 1, 100 mg twice a day): without any DLT | toxicity / DLT ([1]; fourth patient, dose level 7, 800 mg twice a day): moderate toxicity of grade 2 diarrhea | toxicity / DLT ([1]; second patient, dose level 3, 200 mg twice a day): moderate toxicity of grade 2 skin rash | toxicity / DLT ([1]; third patient, dose level 5, 400 mg twice a day): without any DLT | xenograft tumor growth (TOV112D xenograft tumors): inhibited | growth of resistant cancer cells [2]: suppresses the growth | PARP1 activity decreased by (PARP1; HCC1937+BRCA1, 24 h incubation): 12.66% | PARP1 activity, COH29 treated (PARP1; HCC1937+BRCA1, 24 h incubation): 2041097 cps | PARP1 activity decreased by (PARP1; [3]): 41.08% | PARP1 activity, COH29 treated (PARP1; [3]): 427851 cps | PARP1 activity rose by (PARP1; UWB1.289+BRCA1, 8 h treatment): 46.31% | PARP1 activity, COH29 treated (PARP1; UWB1.289+BRCA1, 8 h treatment): 2129944 cps | PARP1 activity decreased by (PARP1; [4]): 31.79% | PARP1 activity, COH29 treated (PARP1; [4]): 774611 cps
